According to patent publication US20110105509A1 (Wyeth, LLC, priority 2009, published 2011):

target: T1, CRTH2 (Homo sapiens, UniProt Q9Y5Y4); test: FRET based competitive immunoassay (cAMP) in CRTH2 expressing CHO cells; assay type: cell-based; conditions: CRTH2 expressing CHO cells incubated with forskolin and PGD2; Eu3+ cryptate-labeled anti-cAMP and d2-labeled cAMP
T1 construct: expressed in transfected cells; host or cells: CHO cells
T1 sequence (Q9Y5Y4 1-395): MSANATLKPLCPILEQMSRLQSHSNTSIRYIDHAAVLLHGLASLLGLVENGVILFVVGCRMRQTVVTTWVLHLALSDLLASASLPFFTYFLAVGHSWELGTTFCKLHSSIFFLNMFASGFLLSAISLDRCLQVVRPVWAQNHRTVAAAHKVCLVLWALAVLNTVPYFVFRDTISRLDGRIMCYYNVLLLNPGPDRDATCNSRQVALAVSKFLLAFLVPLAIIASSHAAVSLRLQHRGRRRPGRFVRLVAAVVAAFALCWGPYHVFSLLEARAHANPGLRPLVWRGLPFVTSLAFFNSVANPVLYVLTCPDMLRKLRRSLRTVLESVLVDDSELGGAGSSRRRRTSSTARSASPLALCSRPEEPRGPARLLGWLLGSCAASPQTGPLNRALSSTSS
Method: FRET Assay: To evaluate potency compounds were tested in a FRET based competitive immunoassay in which CRTH2 expressing CHO cells were incubated in the presence of forskolin and PGD2 along with Eu3+ cryptate-labeled anti-cAMP and d2-labeled cAMP.

SMILES | IC50 [nM]
Cc1c(-c2ccc(=O)n(Cc3cc(F)cc(F)c3)c2)c2cc(Cl)ccc2n1CC(=O)O [Example 294, 2-(5-Chloro-3-(1-(3,5-difluorobenzyl)-6-oxo-1,6-dihydropyridin-3-yl)-2-methyl-1H-indol-1-yl)acetic acid] | 2
Cc1c(-c2ccc(=O)n(CCCC(F)(F)F)c2)c2ccccc2n1CC(=O)O [Example 296, 2-(2-methyl-3-(6-oxo-1-(4,4,4-trifluorobutyl)-1,6-dihydropyridin-3-yl)-1H-indol-1-yl)acetic acid] | 397
Cc1c(-c2ccc(=O)n(CCCC(F)(F)F)c2)c2cc(F)ccc2n1CC(=O)O [Example 297, 2-(5-fluoro-2-methyl-3-(6-oxo-1-(4,4,4-trifluorobutyl)-1,6-dihydropyridin-3-yl)-1H-indol-1-yl)acetic acid] | 38
COc1ccc2c(c1)c(-c1ccc(=O)n(CC(F)(F)F)c1)c(C)n2CC(=O)O [Example 298, 2-(5-methoxy-2-methyl-3-(6-oxo-1-(2,2,2-trifluoroethyl)-1,6-dihydropyridin-3-yl)-1H-indol-1-yl)acetic acid] | > 2000
Cc1c(-c2ccc(=O)n(Cc3cccc(F)c3F)c2)c2cc(F)ccc2n1CC(=O)N(C)C [Example 300, 2-(3-(1-(2,3-difluorobenzyl)-6-oxo-1,6-dihydropyridin-3-yl)-5-fluoro-2-methyl-1H-indol-1-yl)-N,N-dimethylacetamide] | > 2000
Cc1c(-c2ccc(=O)n(Cc3cccc(F)c3F)c2)c2cc(F)ccc2n1CC(N)=O [Example 301, 2-(3-(1-(2,3-difluorobenzyl)-6-oxo-1,6-dihydropyridin-3-yl)-5-fluoro-2-methyl-1H-indol-1-yl)acetamide] | > 2000
Cc1c(-c2ccc(=O)n(Cc3cccc(F)c3F)c2)c2cc(F)ccc2n1CCC(=O)O [Example 303, 3-(3-(1-(2,3-difluorobenzyl)-6-oxo-1,6-dihydropyridin-3-yl)-5-fluoro-2-methyl-1H-indol-1-yl)propanoic acid] | > 2000
Cc1c(-c2ccc(=O)n(Cc3cccc(F)c3F)c2)c2cc(F)ccc2n1CCO [Example 305, 1-(2,3-difluorobenzyl)-5-(5-fluoro-1-(2-hydroxyethyl)-2-methyl-1H-indol-3-yl)-pyridin-2(1H)-one] | > 2000
Cc1c(-c2ccc(=O)n(Cc3cccc(F)c3F)c2)c2cc(F)ccc2n1[C@H](C)C(=O)O [Example 306b, (R)-2-(3-(1-(2,3-difluorobenzyl)-6-oxo-1,6-dihydropyridin-3-yl)-5-fluoro-2-methyl-1H-indol-1-yl)propanoic acid] | > 2000
Cc1c(-c2ccc(=O)n(CCC(F)(F)F)c2)c2cc(F)ccc2n1CC(=O)O [Example 307, 2-(5-fluoro-2-methyl-3-(6-oxo-1-(3,3,3-trifluoropropyl)-1,6-dihydropyridin-3-yl)-1H-indol-1-yl)acetic acid] | 28
Cc1c(-c2ccc(=O)n(Cc3ccccn3)c2)c2cc(F)ccc2n1CC(=O)O [Example 309, 2-(5-fluoro-2-methyl-3-(6-oxo-1-(pyridin-2-ylmethyl)-1,6-dihydropyridin-3-yl)-1H-indol-1-yl)acetic acid] | 105
Cc1c(-c2ccc(=O)n(Cc3cccc(F)c3F)c2)c2cc(F)ccc2n1CC#N [Example 310, 2-(3-(1-(2,3-difluorobenzyl)-6-oxo-1,6-dihydropyridin-3-yl)-5-fluoro-2-methyl-1H-indol-1-yl)acetonitrile] | > 1000
Cc1c(-c2ccc(=O)n(Cc3ccccc3)c2)c2cc(F)ccc2n1CC(=O)NS(=O)(=O)c1ccccc1 [Example 312, 2-(3-(1-benzyl-6-oxo-1,6-dihydropyridin-3-yl)-5-fluoro-2-methyl-1H-indol-1-yl)-N-(phenylsulfonyl)acetamide] | > 1000
Cc1ccccc1S(=O)(=O)NC(=O)Cn1c(C)c(-c2ccc(=O)n(Cc3ccccc3)c2)c2cc(F)ccc21 [Example 314, 2-(3-(1-Benzyl-6-oxo-1,6-dihydropyridin-3-yl)-5-fluoro-2-methyl-1H-indol-1-yl)-N-(o-tolyl-sulfonyl)acetamide] | > 1000
Cc1c(-c2ccc(=O)n(Cc3cccnc3)c2)c2cc(F)ccc2n1CC(=O)O [Example 315, 2-(5-fluoro-2-methyl-3-(6-oxo-1-(pyridin-3-ylmethyl)-1,6-dihydropyridin-3-yl)-1H-indol-1-yl)acetic acid] | 32
Cc1c(-c2ccc(=O)n(CCCC(F)(F)F)c2)c2cc(F)ccc2n1CC(=O)NS(=O)(=O)C1CC1 [Example 317, N-(cyclopropylsulfonyl)-2-(5-fluoro-2-methyl-3-(6-oxo-1-(4,4,4-trifluorobutyl)-1,6-dihydropyridin-3-yl)-1H-indol-1-yl)acetamide] | > 1000

Results, then the molecule that gave them:

IC50 [nM] | SMILES
11 | Cc1c(-c2ccc(=O)n(Cc3cccc(F)c3)c2)c2cc(Cl)ccc2n1CC(=O)O [Example 295, 2-(5-chloro-3-(1-(3-fluorobenzyl)-6-oxo-1,6-dihydropyridin-3-yl)-2-methyl-1H-indol-1-yl)acetic acid]
> 2000 | Cc1c(-c2ccc(=O)n(Cc3cccc(F)c3F)c2)c2cc(F)ccc2n1CC(=O)N1CCCC1 [Example 299, 1-(2,3-difluorobenzyl)-5-(5-fluoro-2-methyl-1-(2-oxo-2-(pyrrolidin-1-yl)-ethyl)-1H-indol-3-yl)pyridin-2(1H)-one]
159 | Cc1c(-c2ccc(=O)n(Cc3cccc(F)c3F)c2)c2cc(F)ccc2n1CC(=O)NS(C)(=O)=O [Example 302, 2-(3-(1-(2,3-Difluorobenzyl)-6-oxo-1,6-dihydropyridin-3-yl)-5-fluoro-2-methyl-1H-indol-1-yl)-N-(methylsulfonyl)acetamide]
1180 | Cc1ccc2c(c1)c(-c1ccc(=O)n(CC(F)(F)F)c1)c(C)n2CC(=O)O [Example 304, 2-(2,5-dimethyl-3-(6-oxo-1-(2,2,2-trifluoroethyl)-1,6-dihydropyridin-3-yl)-1H-indol-1-yl)acetic acid]
> 2000 | Cc1c(-c2ccc(=O)n(Cc3cccc(F)c3F)c2)c2cc(F)ccc2n1[C@@H](C)C(=O)O [Example 306a, (S)-2-(3-(1-(2,3-difluorobenzyl)-6-oxo-1,6-dihydropyridin-3-yl)-5-fluoro-2-methyl-1H-indol-1-yl)propanoic acid]
35 | Cc1c(-c2ccc(=O)n(Cc3ccncc3)c2)c2cc(F)ccc2n1CC(=O)O [Example 308, 2-(5-fluoro-2-methyl-3-(6-oxo-1-(pyridin-4-ylmethyl)-1,6-dihydropyridin-3-yl)-1H-indol-1-yl)acetic acid]
> 1000 | Cc1c(-c2ccc(=O)n(Cc3cccc(F)c3F)c2)c2cc(F)ccc2n1Cc1nn[nH]n1 [Example 311, 5-(1-((2H-tetrazol-5-yl)methyl)-5-fluoro-2-methyl-1H-indol-3-yl)-1-(2,3-difluoro-benzyl)pyridin-2(1H)-one]
32 | Cc1c(-c2ccc(=O)n(Cc3ccccc3)c2)c2cc(F)ccc2n1CC(=O)NS(C)(=O)=O [Example 313, 2-(3-(1-Benzyl-6-oxo-1,6-dihydropyridin-3-yl)-5-fluoro-2-methyl-1H-indol-1-yl)-N-(methyl-sulfonyl)acetamide]
39 | Cc1c(-c2ccc(=O)n(CCC(C(F)(F)F)C(F)(F)F)c2)c2cc(F)ccc2n1CC(=O)O [Example 316, 2-(5-fluoro-2-methyl-3-(6-oxo-1-(4,4,4-trifluoro-3-(trifluoromethyl)butyl)-1,6-dihydropyridin-3-yl)-1H-indol-1-yl)acetic acid]
